Data from PubChem BioAssay (NCI).
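Compound exposure: 48 hours, 5 concentrations, 96-well plates. TGI denotes the concentration required for complete inhibition of growth.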

What was measured:
Assay in all cases: inhibition of tumour cell growth, NCI panel, 48 h
[1] = tested on: HCT-15 colon
[2] = tested on: OVCAR-8 ovarian
[3] = tested on: SF-295 CNS
[4] = tested on: HL-60(TB) leukemia
[5] = tested on: OVCAR-5 ovarian
[6] = tested on: KM12 colon
[7] = tested on: NCI-H226 lung
[8] = tested on: MOLT-4 leukemia
[9] = tested on: RXF 393 renal
[10] = tested on: 786-0 renal
[11] = tested on: MALME-3M melanoma
[12] = tested on: TK-10 renal
[13] = tested on: COLO 205 colon
[14] = tested on: K-562 leukemia
[15] = tested on: UACC-62 melanoma
[16] = tested on: NCI-H23 lung
[17] = tested on: DMS 114 small cell lung
[18] = tested on: SK-MEL-28 melanoma
[19] = tested on: CCRF-CEM leukemia
[20] = tested on: SK-MEL-2 melanoma
[21] = tested on: HCC-2998 colon
[22] = tested on: DMS 273 small cell lung
[23] = tested on: M14 melanoma
[24] = tested on: SNB-75 CNS
[25] = tested on: UACC-257 melanoma
[26] = tested on: SK-OV-3 ovarian
[27] = tested on: NCI-H522 lung
[28] = tested on: SF-268 CNS
[29] = tested on: SW-620 colon
[30] = tested on: HOP-62 NSCLC
[31] = tested on: LOX IMVI melanoma
[32] = tested on: A498 renal
[33] = tested on: SF-539 CNS
[34] = tested on: IGROV1 ovarian
[35] = tested on: KM20L2 colon
[36] = tested on: HT29 colon
[37] = tested on: HCT-116 colon
[38] = tested on: SNB-19 CNS
[39] = tested on: CAKI-1 renal
[40] = tested on: LXFL 529 NSCLC
[41] = tested on: EKVX NSCLC
[42] = tested on: OVCAR-4 ovarian
[43] = tested on: UO-31 renal
[44] = tested on: SK-MEL-5 melanoma
[45] = tested on: ACHN renal
[46] = tested on: HOP-18 NSCLC
[47] = tested on: M19-MEL melanoma
[48] = tested on: A549 NSCLC
[49] = tested on: SN12C renal
[50] = tested on: XF 498 CNS
[51] = tested on: DLD-1 colon
[52] = tested on: NCI-H460 lung
[53] = tested on: SNB-78 CNS
[54] = tested on: OVCAR-3 ovarian
[55] = tested on: U251 CNS
[56] = tested on: RPMI-8226 leukemia
[57] = tested on: HOP-92 NSCLC

Measured: TGI

CC(C)=CC(=O)N(C)C1C2CN3CCC(O2)C13 (stereo unspecified)
not listed: [56] | [57]
> 100 µM: all other assays above

O=c1[nH]cc(F)c(=O)n1C1OC(CO)C(O)C1O (stereo unspecified)
not listed: [15] | [32] | [33] | [34] | [37] | [47]
> 100 µM: all other assays above
